Reference: ChEMBL document CHEMBL3822426, “A cascade screening approach for the identification of Bcr-Abl myristate pocket binders active against wild type and T315I mutant” (Bioorg Med Chem Lett, 2016)
Calls of active or inactive are those of the source. No cut-off for these calls is given here.

Experiments:
[1] = Cytotoxicity against mouse 32D cells assessed as reduction in cell viability at 0.5 to 50 uM after 48 hrs by cell counting method; format: cell-based
[2] = tested on: Bcr/Abl fusion protein (Homo sapiens), P00519+P11274 [T315I]; experiment: Inhibition of BCR/ABL T315I mutant (unknown origin) expressed in mouse 32D cells assessed as reduction in CRKL phosphorylation at Tyr-207 residue at 1 uM after 24 hrs by Western blot analysis; format: cell-based
[3] = biological target: Tyrosine-protein kinase ABL1 (Homo sapiens) (UniProt P00519); details: 25 uM
Description: Allosteric inhibition of recombinant wild type ABL (unknown origin) assessed as Vmax(app) for ATP at 25 uM incubated for 10 mins in presence of [gamma32P]ATP by scintillation counting method

[4] = tested on: Tyrosine-protein kinase ABL1 (Homo sapiens), P00519 [T315I]; details: Sf21, 100 uM
Description: Allosteric inhibition of recombinant human N-terminal His6-tagged ABL (27-end residues) T315I mutant expressed in baculovirus infected sf21 cells assessed as Vmax(app) for ATP at 100 uM incubated for 10 mins in presence of [gamma32P]ATP by scintillation counting method

[5] = Cytotoxicity against imatinib mesylate resistant mouse 32D cells expressing BCR/ABL T315I mutant assessed as reduction in cell viability after 48 hrs by cell counting method; format: functional, cell-based
[6] = biological target: Tyrosine-protein kinase ABL1 (Homo sapiens) (UniProt P00519); details: 100 uM
Description: Allosteric inhibition of recombinant wild type ABL (unknown origin) assessed as Vmax(app) for ATP at 100 uM incubated for 10 mins in presence of [gamma32P]ATP by scintillation counting method

[7] = Cytotoxicity against imatinib mesylate sensitive mouse 32D cells expressing wild type BCR/ABL p210 assessed as reduction in cell viability after 48 hrs by cell counting method; format: functional, cell-based
[8] = biological target: Tyrosine-protein kinase ABL1 (Homo sapiens) (UniProt P00519); details: 50 uM
Description: Allosteric inhibition of recombinant wild type ABL (unknown origin) assessed as Vmax(app) for ATP at 50 uM incubated for 10 mins in presence of [gamma32P]ATP by scintillation counting method

[9] = tested on: Tyrosine-protein kinase ABL1 (Homo sapiens), P00519 [T315I]; details: Sf21, 25 uM
Description: Allosteric inhibition of recombinant human N-terminal His6-tagged ABL (27-end residues) T315I mutant expressed in baculovirus infected sf21 cells assessed as Vmax(app) for ATP at 25 uM incubated for 10 mins in presence of [gamma32P]ATP by scintillation counting method

[10] = tested on: Tyrosine-protein kinase ABL1 (Homo sapiens), P00519 [T315I]; details: Sf21, 50 uM
Description: Allosteric inhibition of recombinant human N-terminal His6-tagged ABL (27-end residues) T315I mutant expressed in baculovirus infected sf21 cells assessed as Vmax(app) for ATP at 50 uM incubated for 10 mins in presence of [gamma32P]ATP by scintillation counting method

[11] = biological target: Tyrosine-protein kinase ABL1 (Homo sapiens, UniProt P00519, T315I); experiment: Allosteric inhibition of recombinant human N-terminal His6-tagged ABL (27-end residues) T315I mutant expressed in baculovirus infected sf21 cells using Abl-tide as substrate incubated for 10 mins in presence of [gamma32P]ATP by scintillation counting method

SMILES: C(=C\n1ncc2c(NC3CCCCC3)ncnc21)/c1ccccc1
- Activity [1]: Non-toxic
- inhibition [2]: Active
- Vmax(app) [3]: 13.1 pmol/min
- Vmax(app) [4]: 4.95 pmol/min
- IC50 [5]: 25.1 µM
- Vmax(app) [6]: 5.83 pmol/min
- IC50 [7]: 8.5 µM
- Vmax(app) [8]: 8.57 pmol/min
- Vmax(app) [9]: 15 pmol/min
- Vmax(app) [10]: 8.06 pmol/min
- IC50 [11]: 50 µM

SMILES: C(=C\n1ncc2c(N3CCCCCC3)ncnc21)/c1ccccc1
- Activity [1]: Non-toxic
- inhibition [2]: Active
- IC50 [5]: 13.8 µM
- IC50 [7]: 1.2 µM
- IC50 [11]: 20 µM
